The values that follow come from patent publication US11383009B2, “Rapamycin 40-O-cyclic hydrocarbon esters, compositions and methods” (BIOTRONIK AG, priority 2012, dated 2022).

Series [1] can be described thus: Stent coating condition after stent expansion (ductility). The settings on record: coating of 1:1 weight ratio drug and polylactic acid; compared with rapamycin coating. From the text: In accordance with one of the unexpected advantages of the present invention, it has been discovered that a coating formed with the compounds of the present invention is substantially more ductile, i.e., less prone to cracking, than a coating formed with rapamycin. This property can be seen from the photomicrographs of FIGS. 1 and 2, which show the condition of a stent coating after stent expansion in a stent formed of a 1:1 weight ratio of […] and polylactic acid (FIG. 1) and a coating formed of a 1:1 weight ratio of Compound 1 (Table I) and polylactic acid (FIG. 2). […] An important advantage of the drug compound in this setting is that a coating with a high drug:polymer ratio can be prepared without the need for addition of a separate plasticizer, which may cause toxic responses, affect drug elution rates, and extend development times and increase production costs.

Series [2] concerns vascular restenosis, porcine coronary arteries. As to the kind of experiment: Trial B: coated magnesium stents implanted in porcine coronary arteries, 28 days. The settings on record: Group 1 (n = 5 stents), 223 μg drug in polylactic acid on parylene C coated magnesium stent; 28 days post-implant.
Description: Coronary artery measurements were made from angiographic images before stent deployment, immediately after deployment, and twenty-eight days after deployment to determine the effectiveness of the coated stent in reducing restenosis. Determination of angiographic late loss was made by subtraction of the minimum vessel lumen diameter of the stented vessel at 28 days post-implant from the minimal vessel lumen diameter at the time of implant. Determination of percent diameter stenosis was made at 28 days post-implant by the calculation of 100(1-MLD/refdia.) where MLD represents the minimum vessel lumen diameter at 28 days post-implant and refdia. is the average diameter of the vessel sections adjacent to the stented vessel.
The nature of series [3]: Drug stability in rabbit vitreous humour at 37° C. The format is in vitro ADME, New Zealand White rabbit. The source says: (§1) The assay comparison between sirolimus and the compounds of the present invention (denoted as CRC) is further described at Table XI.
Series [4] is described as follows: Drug stability in rabbit aqueous humour at 37° C. The format is in vitro ADME.
Description: as §1

The nature of series [5]: Drug elution and total recovery from polymer-coated stents. The format is physicochemical. The settings on record: single stent, 1:1 drug/polylactic acid coating; 25% ethanol in water, 37° C., 168 hours elution plus exhaustive acetonitrile extraction. How it is done: This section examines the stability of the compounds of the invention when released from a reservoir over a several-day to several-week period. In one study, a series of stents were prepared with a suitable coating of drug/polymer mixture. The stents were fabricated from laser cut and electropolished 316L Stainless Steel and measured 16 millimeters in length. The coating mixture contained an equal weight of polylactic acid and each of the compounds to be evaluated. The mixture components were weighed, combined in a glass vial with acetone at room temperature and then vortexed until all of the materials dissolved. Each individual stent was weighed using a Mettler model XP105 balance. […]
After visual inspection the stents were mounted onto 3.0 mm×16 mm angioplasty balloons using a hand crimper. […] The appropriate pressure for inflation was determined using the inflation table applicable to the angioplasty catheter. […]
For elution comparison each stent was transferred into its respective 7-mL borosilicate vial and 4.0 mL 25% ethanol in water (w/w) elution medium was added. […] The amount of drug eluted during each time interval was determined by HPLC. After a cumulative incubation of 168 hours, the remaining drug in each stent was determined by exhaustive extraction by adding 4.0 mL acetonitrile to each stent for 20 minutes at ambient temperature followed by vortexing for 10 seconds. […]

[6] abbreviates: 72 hours, drug dose 48.4 μg (SIR 1), 52.2 μg (CRC 1).
[7] abbreviates: […], drug dose 47.8 μg (SIR 2), 54.0 μg (CRC 2).
[8] abbreviates: 72 hours, drug dose 45.2 μg (SIR 1), 51.4 μg (CRC 1).

SMILES strings stand for the structures. “And” between values parts separate entries of the source, which are not always exact repeats. Equal values may be shown once.

Take `COC1CC2CCC(C)C(O)(O2)C(=O)C(=O)N2CCCCC2C(=O)OC(C(C)CC2CCC(OC(=O)C3CC3)C(OC)C2)CC(=O)C(C)C=C(C)C(O)C(OC)C(=O)C(C)CC(C)C=CC=CC=C1C` (stereo not shown) [Compound 1, Rapamycin 40-O-Cyclic Hydrocarbon Ester with Cyclopropanecarbonyl Chloride]: the “condition of stent coating after stent expansion (ductility)” value in series [1] is “more ductile”.

For `CO[C@H]1C[C@@H]2CC[C@@H](C)[C@@](O)(O2)C(=O)C(=O)N2CCCC[C@H]2C(=O)O[C@H]([C@H](C)C[C@@H]2CC[C@@H](O)[C@H](OC)C2)CC(=O)[C@H](C)/C=C(\C)[C@@H](O)[C@@H](OC)C(=O)[C@H](C)C[C@H](C)/C=C/C=C/C=C/1C` [Rapamycin], in series [2], the “Angiographic Late Loss” value is recorded as 0.42 mm. Also, in series [2], the “Diameter Stenosis” value is reported as 13.1%. For the same molecule, the “Degradants (HPLC UV Area Percent)” value in series [3] (0 hrs) is 3%; in series [3] (1 hrs), 3%; in series [3] (4 hrs) it was 7%; in series [3] (24 hrs) it was 43%; in series [3] (48 hrs) it was 71%; in series [3] (72 hrs), 84%. In addition, the “Degradants (HPLC UV Area Percent)” value in series [4] (0 hrs) is on record as 2%; in series [4] (1 hrs), 4%; in series [4] (4 hrs) it was 18%; in series [4] (24 hrs), 86%; in series [4] (48 hrs) it was 96%; in series [4] (72 hrs) it was 100%. The “Intact drug (HPLC UV Area Percent)” value in series [3] (0 hrs) amounted to 97%; in series [3] (1 hrs), 97%; in series [3] (4 hrs) it was 93%; in series [3] (24 hrs) it was 57%; in series [3] (48 hrs), 29%; in series [3] (72 hrs), 16%. The “Intact drug (HPLC UV Area Percent)” value is listed as 98% in series [4] (0 hrs); 96% in series [4] (1 hrs); 82% in series [4] (4 hrs); 14% in series [4] (24 hrs); 4% in series [4] (48 hrs); 0% in series [4] (72 hrs). Further, the results for the “% Remaining (72 Hours)” value in series [3] (setting [6]) and in series [4] (setting [8]) were 8% and 0%, respectively. Moreover, the “Drug Remaining 72 Hours” value in series [3] (setting [6]) is 4.0 µg; in series [4] (setting [8]), 0.0 µg. Further, in series [3] (setting [7]), the “% Remaining (192 Hours)” value is reported as 1%. The “Drug Remaining 192 Hours” value in series [3] (setting [7]) came to 0.6 µg. In series [5], the “Total Drug (μg) Recovered” value was 109.1 µg and 84.6 µg and 103.4 µg and 125.2 µg and 71.6 µg.
